Measurements: PMC8297715 (ACS chemical biology, 2020)

Assays:
human nSMase2 = biological target: T1, human nSMase2 (Homo sapiens, UniProt Q9NY59); assay: Amplex Red neutral sphingomyelinase enzyme activity assay; type: biochemical
T1 sequence (Q9NY59 1-655): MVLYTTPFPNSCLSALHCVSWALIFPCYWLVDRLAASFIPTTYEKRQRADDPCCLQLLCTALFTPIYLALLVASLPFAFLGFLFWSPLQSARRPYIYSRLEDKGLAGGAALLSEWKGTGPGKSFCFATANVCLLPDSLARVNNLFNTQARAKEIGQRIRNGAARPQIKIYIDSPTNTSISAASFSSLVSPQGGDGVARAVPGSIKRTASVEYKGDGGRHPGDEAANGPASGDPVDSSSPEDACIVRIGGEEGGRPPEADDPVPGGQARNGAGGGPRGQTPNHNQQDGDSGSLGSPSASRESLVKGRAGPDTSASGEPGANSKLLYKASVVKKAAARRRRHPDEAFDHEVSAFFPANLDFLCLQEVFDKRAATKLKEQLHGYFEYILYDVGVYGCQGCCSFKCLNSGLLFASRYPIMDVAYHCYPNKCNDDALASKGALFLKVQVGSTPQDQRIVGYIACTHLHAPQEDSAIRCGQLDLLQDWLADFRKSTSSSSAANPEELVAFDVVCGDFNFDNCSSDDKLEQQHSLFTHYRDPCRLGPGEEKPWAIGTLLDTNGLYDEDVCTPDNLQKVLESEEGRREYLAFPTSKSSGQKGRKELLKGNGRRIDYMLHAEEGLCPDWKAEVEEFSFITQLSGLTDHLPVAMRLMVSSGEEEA

human AChE [1] = biological target: T2, human AChE (Homo sapiens, UniProt P22303); conditions: cited from earlier work
T2 sequence (P22303 32-614): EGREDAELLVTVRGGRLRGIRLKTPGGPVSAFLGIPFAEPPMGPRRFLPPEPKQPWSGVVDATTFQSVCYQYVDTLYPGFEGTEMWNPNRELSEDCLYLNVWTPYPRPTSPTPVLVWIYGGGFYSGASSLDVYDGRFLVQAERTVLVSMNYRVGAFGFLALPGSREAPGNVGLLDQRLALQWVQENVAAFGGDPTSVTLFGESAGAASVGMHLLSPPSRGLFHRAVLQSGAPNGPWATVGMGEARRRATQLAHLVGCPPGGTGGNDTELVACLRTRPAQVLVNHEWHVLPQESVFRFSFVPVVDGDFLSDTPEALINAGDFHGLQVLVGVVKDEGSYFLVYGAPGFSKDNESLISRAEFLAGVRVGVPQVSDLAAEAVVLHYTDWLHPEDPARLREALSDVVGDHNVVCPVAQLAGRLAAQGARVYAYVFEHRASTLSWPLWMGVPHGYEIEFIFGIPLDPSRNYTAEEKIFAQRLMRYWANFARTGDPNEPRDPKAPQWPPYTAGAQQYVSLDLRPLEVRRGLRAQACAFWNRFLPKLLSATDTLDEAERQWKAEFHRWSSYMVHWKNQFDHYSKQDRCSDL

human AChE [2] = biological target: T2, human AChE; assay: Amplex Red acetylcholinesterase; type: biochemical; conditions: read-out: AChE inhibition IC50; dose-response; human AChE (Sigma)
[3] = system: HEK293T Tau RD P301S FRET biosensor (tau biosensor); conditions: previously published; cited from earlier work
[4] = system: HEK293T Tau RD P301S FRET biosensor (tau biosensor); assay: EV-mediated transfer; type: cell-based; conditions: 20 μM

CN1CC[C@]2(C)c3cc(OC(=O)Nc4ccccc4)ccc3N(C)[C@H]12 [Posiphen]
IC50 (human nSMase2): > 50 µM | AChE inhibitor activity (human AChE [1]; reported): weak AChE inhibitor

CN1c2ccc(OC(=O)Nc3ccccc3)cc2[C@]2(C)CCO[C@H]12 [compound 1, (−)-phensvenine]
IC50 (human AChE [2]): 0.5 µM

O=c1[nH]c(=S)[nH]c(-c2ccccc2)c1Cc1c(O)ccc2ccccc12 [cambinol]
AChE activity (human AChE [1]; previously published): no AChE activity | tau seed transfer in the EMT assay [3]: shows inhibition of tau seed transfer

CCN(C)C(=O)Oc1cccc([C@H](C)N(C)C)c1 [rivastigmine]
nSMase2 activity (human nSMase2): no nSMase2 activity | EV-mediated tau seed transfer, EMT assay [4]: partially suppress

CN1CC[C@@]2(C)c3cc(OC(=O)Nc4ccccc4)ccc3N(C)[C@@H]12 [phenserine]
IC50 (human nSMase2): > 50 µM
